Test results published in US7521454B2 (Dainippon Sumitomo Pharma Co., Ltd., priority 2001, dated 2009).
≈ marks a conversion by molar mass, not a printed value.

How the values were obtained:
male cynomolgus monkeys = experiment: Interferon-inducing activity in cynomolgus monkey (in vivo), serum interferon titer and vomition; settings: cynomolgus monkey, in vivo
IL-4 production = experiment: Inhibitory activity against Th2 cytokine produced from sensitized spleen cells: IL-4; type: cell-based, mouse; settings: Mus musculus, 72 h, OVA-sensitized BALB/c spleen cells, 3 days, read-out: Inhibitory activity against IL-4 production
Outline: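 BALB/c mice immunized i.p. with 10 μg ovalbumin on alum, boosted at day 14; spleen cells taken 7 days later. Cells (5×10^6/well) restimulated with ovalbumin 0.5 mg/ml plus test compound, cultured 3 days at 37° C, 5% CO2. Supernatant cytokine quantified by ELISA.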

[1] = Solubility in citric acid/disodium phosphate buffers; settings: thermodynamic from solid
Description: 5.53% citric acid (monohydrate) and 1.75% disodium phosphate (anhydrous) were mixed together to prepare buffers (pH 2.5, 5.5, 7.4). A compound was added thereto, the mixture was stirred in a vortex mixer and subjected to ultrasonication for 30 minutes. Thereafter, the resultant was stirred in a vortex mixer again and then centrifuged at 15,000 rpm for 20 minutes. The levels of the compounds in the supernatants were then quantified by HPLC.

## CCCCNc1nc(N)c2nc(O)n(Cc3ccc(C)nc3)c2n1 [Example 27, 2-Butylamino-8-hydroxy-9-(6-methyl-3-pyridylmethyl)adenine]
Male cynomolgus monkeys
  interferon titer in blood serum (average±SE): 14,488±6365 U/ml
IL-4 production; concentration 1 nM
  activity at 0.001 µM: 30%
IL-4 production; concentration 10 nM
  activity at 0.01 µM: 1%
IL-4 production; concentration 100 nM
  activity at 0.1 µM: < 1%
[1]; pH 2.5, aqueous buffer
  solubility at 30 min: 610 µg/mL (≈ 1860 µM)
[1]; pH 5.5, aqueous buffer
  solubility at 30 min: 5 µg/mL (≈ 15.3 µM)
[1]; pH 7.4, aqueous buffer
  solubility at 30 min: 2 µg/mL (≈ 6.11 µM)
